Common to all, as to assay type: protein assay
The target in experiment [1] is T1, Keap1/Nrf2 (Homo sapiens, UniProt Q14145+Q16236). Description: Binding affinity to Keap1/Nrf2 complex (unknown origin) by ITC method.
Experiment [2] concerns the target T1, Keap1/Nrf2. As to the kind of experiment: Binding affinity to Keap1/Nrf2 complex (unknown origin) by fluorescence polarization assay.
Experiment [3] has as its target T1, Keap1/Nrf2. As to the kind of experiment: Inhibition of Keap1/Nrf2 complex (unknown origin).

Residues, ends and D or L forms follow the SMILES beside them.

T1 sequence (Q16236 whole entry): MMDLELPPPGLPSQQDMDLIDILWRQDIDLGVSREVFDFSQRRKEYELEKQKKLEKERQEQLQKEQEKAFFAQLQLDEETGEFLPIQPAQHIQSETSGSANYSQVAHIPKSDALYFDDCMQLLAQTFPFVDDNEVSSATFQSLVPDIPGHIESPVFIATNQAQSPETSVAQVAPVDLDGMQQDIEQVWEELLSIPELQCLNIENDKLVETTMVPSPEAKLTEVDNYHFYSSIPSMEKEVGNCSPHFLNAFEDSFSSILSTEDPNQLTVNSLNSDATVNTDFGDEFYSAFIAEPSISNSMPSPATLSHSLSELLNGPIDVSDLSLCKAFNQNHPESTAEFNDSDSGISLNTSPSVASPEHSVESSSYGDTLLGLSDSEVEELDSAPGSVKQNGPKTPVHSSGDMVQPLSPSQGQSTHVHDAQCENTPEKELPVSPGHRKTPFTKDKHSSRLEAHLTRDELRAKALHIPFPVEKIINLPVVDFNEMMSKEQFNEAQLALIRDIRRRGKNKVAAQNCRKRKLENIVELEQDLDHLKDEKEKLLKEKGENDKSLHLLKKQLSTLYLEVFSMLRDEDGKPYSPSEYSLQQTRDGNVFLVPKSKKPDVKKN
T1 sequence (Q14145 whole entry): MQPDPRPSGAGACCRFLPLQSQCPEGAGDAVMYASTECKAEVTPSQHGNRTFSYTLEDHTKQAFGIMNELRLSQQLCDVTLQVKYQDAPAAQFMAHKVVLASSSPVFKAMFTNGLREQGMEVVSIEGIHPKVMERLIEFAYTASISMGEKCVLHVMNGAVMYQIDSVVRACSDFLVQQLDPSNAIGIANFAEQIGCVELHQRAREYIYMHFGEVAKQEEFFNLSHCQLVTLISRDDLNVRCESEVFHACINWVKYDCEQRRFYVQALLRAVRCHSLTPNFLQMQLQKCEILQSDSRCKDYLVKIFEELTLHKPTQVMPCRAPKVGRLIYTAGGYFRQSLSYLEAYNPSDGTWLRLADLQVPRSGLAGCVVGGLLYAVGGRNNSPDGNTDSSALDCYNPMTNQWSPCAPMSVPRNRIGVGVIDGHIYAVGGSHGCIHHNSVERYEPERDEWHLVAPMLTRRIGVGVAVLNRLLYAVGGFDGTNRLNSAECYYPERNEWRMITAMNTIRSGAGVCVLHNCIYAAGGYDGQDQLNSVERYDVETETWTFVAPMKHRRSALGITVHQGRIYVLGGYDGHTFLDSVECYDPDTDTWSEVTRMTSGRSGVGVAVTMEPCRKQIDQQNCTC

As to `CC(C)C[C@H](NC(=O)[C@@H](N)CC(=O)O)C(=O)NCC(=O)O` (H-Asp-Leu-Gly-OH), the Kd at Keap1/Nrf2 [1] is 1000 nM.
`CC[C@H](C)[C@H](NC(=O)[C@@H]1CCCN1C(=O)[C@H](CC(C)C)NC(=O)[C@H](Cc1ccccc1)NC(=O)[C@H](CCC(=O)O)NC(=O)CNC(=O)[C@@H](NC(=O)[C@H](CCC(=O)O)NC(=O)[C@H](CCC(=O)O)NC(=O)[C@H](CC(=O)O)NC(=O)[C@H](CC(C)C)NC(=O)[C@H](CCC(N)=O)NC(=O)[C@@H](N)CC(C)C)[C@@H](C)O)C(=O)N[C@@H](CCC(N)=O)C(=O)O`: the Kd on Keap1/Nrf2 [2] came out at 61.9 nM.
For the compound `C[C@@H](O)[C@H](NC(=O)[C@@H](N)CCC(=O)O)C(=O)NCC(=O)N[C@@H](CCC(=O)O)C(=O)O` (H-ETGE-OH), at Keap1/Nrf2 [1], binding was put at a Kd of 5 nM.
At Keap1/Nrf2 [3], `Cc1cccc2c1CCN(C(=O)[C@H]1CCCC[C@H]1C(=O)O)[C@@H]2CN1Cc2ccccc2C1=O` came in with an IC50 of 750 nM.

The record behind these values is ChEMBL document CHEMBL3421567, “Non-electrophilic modulators of the canonical Keap1/Nrf2 pathway” (Bioorg Med Chem Lett, 2015).
